Data reported in PubChem BioAssay (NCI).
Several values for one entry are separate records, joined by “and”; a condition that tells them apart may be missing. Identical values can stand only once.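 Interpolation was linear, between the two tested concentrations surrounding the appropriate level; five concentrations were tested over 48 hours in 96-well plates. GI50 is the concentration that inhibits growth by half. Definition used: TGI = concentration required for complete inhibition of growth.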

How the values were obtained:
Assay in all cases: inhibition of tumour cell growth, NCI panel, 48 h
TK-10 renal = test system: TK-10 renal
786-0 renal = test system: 786-0 renal
UO-31 renal = test system: UO-31 renal
SF-268 CNS = test system: SF-268 CNS
HL-60(TB) leukemia = test system: HL-60(TB) leukemia
A498 renal = test system: A498 renal
HOP-92 NSCLC = test system: HOP-92 NSCLC
CCRF-CEM leukemia = test system: CCRF-CEM leukemia

SMILES | GI50 (TK-10 renal) | TGI (TK-10 renal) | GI50 (786-0 renal) | TGI (786-0 renal) | GI50 (UO-31 renal) | TGI (UO-31 renal) | GI50 (SF-268 CNS) | TGI (SF-268 CNS) | GI50 (HL-60(TB) leukemia) | TGI (HL-60(TB) leukemia) | GI50 (A498 renal) | TGI (A498 renal) | GI50 (HOP-92 NSCLC) | TGI (HOP-92 NSCLC) [µM] | GI50 (CCRF-CEM leukemia) | TGI (CCRF-CEM leukemia) [µM]
CSc1nc2nc(-c3ccccc3)c(C)c-2c2n1C(C)C(=O)N2 (centres undefined) | 38.1 µM | > 100 µM | 29.2 µM | > 100 µM | 18.3 µM | > 100 µM | 34.2 µM | > 100 µM | 36.4 µM | > 100 µM | 32.2 µM | > 100 µM | 40.8 µM | > 100 | – | –
COc1cc2nnc3c4cccnc4[nH]c3c2cc1OC | 10.3 µM and 2.38 µM | 50 µM and 7.83 µM | 1.46 µM and 0.319 µM | 7.1 µM and 1.63 µM | 1.52 µM and 0.486 µM | 10.9 µM and 2.66 µM | 1.48 µM and 0.535 µM | 12.9 µM and 4.53 µM | 0.111 µM | 50 µM | 9.26 µM and 2.74 µM | 26.2 µM and 12.4 µM | 0.771 µM and 0.212 µM | – | – | –
COc1ccc(-c2cc(/C=C/C(=O)c3ccc(N)cc3)[nH]n2)cc1OC | 10.9 µM | 23 µM | 1.88 µM | 4.39 µM | 3.03 µM | 13.1 µM | 1.89 µM | 4.4 µM | 3.45 µM | > 100 µM | 2.37 µM | 7.09 µM | 14.9 µM | 30.9 | 1.74 µM | 7.81
Nc1nc(=S)c2ncn(C3OC(COP(=O)(O)O)C(O)C3O)c2[nH]1 (centres undefined) | 1.89 µM | > 100 µM | 2.53 µM | > 100 µM | 1.98 µM | > 100 µM | 2.11 µM | > 100 µM | 2.37 µM | > 100 µM | 0.631 µM | 9.24 µM | – | – | 0.406 µM | > 100
CN1CCN(c2c(F)cc(NC3=C(Cl)C(=O)c4ncccc4C3=O)cc2F)CC1 | 1.93 µM | 3.67 µM | 1.84 µM | 3.44 µM | 1.52 µM | 2.95 µM | 14.1 µM | 28.3 µM | 1.33 µM | 4.99 µM | 13.4 µM | 29.2 µM | 1.55 µM | 3.22 | 2.24 µM | 22
O=C(COc1ccc(/C=C2\Oc3ccccc3C2=O)cc1)Nc1nc2ccccc2s1 | > 84.8 µM | > 100 µM | 5.26 µM | 53.3 µM | 13 µM | > 57.6 µM | – | – | 1.68 µM | 3.51 µM | 37.1 µM | 94.5 µM | – | – | 0.17 µM | 0.332
CCOC(=O)/C(=C\c1cccc(C)c1)C(C)=O | – | 44.3 µM | – | 26.4 µM | – | 33.7 µM | – | 45.4 µM | – | 32.2 µM | – | 52 µM | – | 34.8 | – | –
O=C1c2ccccc2C(=O)c2c(NC3CCCCC3)ccc(Nc3ccc(S(=O)(=O)O)cc3)c21 | – | > 100 µM | – | > 100 µM | – | > 100 µM | – | > 100 µM | – | 99.8 µM | – | > 100 µM | – | > 100 | – | > 100
Cc1cnc(C(=O)NNc2nc3sc4c(c3c(=O)[nH]2)C(C)CCC4)cn1 (centres undefined) | 1.99 µM | 39.7 µM | 1.56 µM | 13.5 µM | 0.414 µM | 3.64 µM | 0.891 µM | > 100 µM | 2.04 µM | 4.89 µM | 2.84 µM | 16.8 µM | 1.84 µM | 62.9 | 0.671 µM | > 100
COc1cc(/C=C/c2cc(/C=C/c3ccc(O)c(OC)c3)n(C(=O)c3ccccc3Br)n2)ccc1O | 3.85 µM | 33 µM | 3.19 µM | > 100 µM | 2.36 µM | 34.1 µM | 2.44 µM | > 100 µM | 2.07 µM | 6 µM | 3.04 µM | 8.71 µM | 3.82 µM | 9.65 | 0.841 µM | 6.14
CC[C@H](C)[C@H](NC(=O)[C@H]1CCCCN1C)C(=O)N(C)[C@H](C[C@@H](OC(C)=O)c1nc(C(=O)NC23CC(C(=O)OC)(C2)C3)cs1)C(C)C | 0.0458 µM | – | 0.00064 µM and 0.00325 µM | > 32.5 µM | 0.0109 µM and 0.00564 µM | > 32.5 µM | 0.000937 µM and 0.00325 µM | > 32.5 µM | 0.000186 µM and < 0.00325 µM | 0.000698 µM and < 0.00325 µM | 0.00723 µM and 0.00325 µM | 0.277 µM | 0.000734 µM | – | 0.000402 µM and 0.00325 µM | 1.47
CC(=O)Oc1c(C(=O)[O-])cc(C(C)C)cc1C(C)C.CC(=O)Oc1c(C(=O)[O-])cc(C(C)C)cc1C(C)C.CC(=O)Oc1c(C(=O)[O-])cc(C(C)C)cc1C(C)C.CC(=O)Oc1c(C(=O)[O-])cc(C(C)C)cc1C(C)C.[Cu+2].[Cu+2] | 33.7 µM | > 100 µM | 63.6 µM | > 100 µM | 50.7 µM | > 100 µM | 38.7 µM | > 100 µM | 22.7 µM | 81.9 µM | 16 µM | 32.8 µM | 45.5 µM | > 100 | 20.5 µM | 53.7
COc1ccc(-c2nc3ccc(Cc4ccc5nc(-c6ccc(OC)cc6)[nH]c5c4)cc3[nH]2)cc1 | 1.1 µM | 2.32 µM | 0.0358 µM | 0.381 µM | 0.217 µM | 2.09 µM | 0.0556 µM | 1.85 µM | < 0.0145 µM | 0.079 µM | 0.018 µM | 0.193 µM | 0.394 µM | 2.26 | < 0.01 µM | 0.275
CCc1ccc(Nc2cc(C)c3ccc(O)cc3n2)cc1 | 14.1 µM | 27.8 µM | 6.07 µM | 19.9 µM | 4.54 µM | 23 µM | 11.2 µM | 30.3 µM | 3.32 µM | 12.5 µM | 16.6 µM | 30.6 µM | 2.81 µM | 10.8 | – | –
Cc1cc(Cl)nc(N(CCNc2ccnc3cc(Cl)ccc23)Cc2ccco2)n1 | 2.62 µM | 8.39 µM | 1.65 µM | 3.1 µM | 1.42 µM | 2.93 µM | 3.22 µM | 13.2 µM | 1.65 µM | 3.59 µM | 1.74 µM | 5.51 µM | 1.2 µM | 3.55 | 1.92 µM | 5.04
CCCCS(=O)c1sc2nc(-c3cccs3)cc(-c3ccccc3)c2c1N (centres undefined) | 15 µM | > 84 µM | 8.26 µM | > 100 µM | 4.16 µM | 49.2 µM | 23.3 µM | > 100 µM | 14.5 µM | > 85.5 µM | 8.02 µM | 76.9 µM | 5.78 µM | 66.1 | 6.71 µM | > 84.8
